This is an account of results in PubChem BioAssay (NCI).

Test systems include BT-549 breast; M14 melanoma; NCI-H226 lung; NCI-H23 lung; OVCAR-3 ovarian; RPMI-8226 leukemia; SF-268 CNS; SK-MEL-2 melanoma; U251 CNS; MALME-3M melanoma.
Common to all, as to test: growth of human tumour cells (NCI), 48 h

Each structure is given as a SMILES string.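 Where inhibition never reached the appropriate level, the endpoint shown equals the highest concentration tested. Otherwise, values were interpolated linearly from a five-concentration, 48-hour dose response in 96-well plates. TGI is the concentration that stops growth completely.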

On to `COc1cc2c(/C=C3/C(=O)Nc4ccccc43)c(Cl)[nH]c2cc1C`, for which the TGI is 17.1 µM in the assay on BT-549 breast; 17 µM in the assay on M14 melanoma; above 100 µM with NCI-H226 lung; 0.879 µM in the assay on NCI-H23 lung; above 39.9 µM with OVCAR-3 ovarian; 24.9 µM in the assay with RPMI-8226 leukemia. In addition, the TGI in the assay with SF-268 CNS was found to be 18.5 µM; with SK-MEL-2 melanoma, 25.4 µM; with U251 CNS, 10.9 µM.

Take `O=C(N/N=C/c1cc(Br)cc(Br)c1[O-])c1ccccc1O.O=C(N/N=C/c1cc(Br)cc(Br)c1[O-])c1ccccc1O.[Fe+2]`: the TGI in the assay on M14 melanoma was 14.5 µM; in the assay with MALME-3M melanoma, 37.5 µM; with NCI-H226 lung, 7.41 µM; in the assay with NCI-H23 lung it was 9.66 µM; in the assay with OVCAR-3 ovarian, 25.8 µM; with SF-268 CNS it was 38.9 µM. The TGI in the assay with SK-MEL-2 melanoma turned out to be 21.4 µM; in the assay with U251 CNS it was 7.88 µM.

For the compound `CCC(=O)Oc1c2ccsc2c(OC(=O)CC)c2ccsc12`, the TGI turned out to be 0.361 µM with BT-549 breast; 0.305 µM in the assay with M14 melanoma; 0.14 µM with MALME-3M melanoma; 4.09 µM with NCI-H226 lung; 0.364 µM in the assay on NCI-H23 lung; 2.29 µM in the assay on SF-268 CNS. For the same compound, the TGI in the assay on SK-MEL-2 melanoma was 1.39 µM; in the assay with U251 CNS, 1.65 µM.

In the case of `O=[N+]([O-])c1ccc(NC(=S)N=Nc2c(O)[nH]c3ccc(Br)cc23)cc1`, the TGI with BT-549 breast is 11.1 µM; in the assay on MALME-3M melanoma it was 20.2 µM; in the assay on NCI-H226 lung, 38.1 µM; with NCI-H23 lung it was 12.9 µM; in the assay on OVCAR-3 ovarian, 21.8 µM; with SF-268 CNS, 26.1 µM. For the same compound, the TGI with SK-MEL-2 melanoma was 28.4 µM; in the assay on U251 CNS it was 21.9 µM.

Consider `COc1c(Br)cc(CC(N)=O)c(O)c1Br`, for which the TGI with MALME-3M melanoma, in the assay with NCI-H226 lung, with NCI-H23 lung, in the assay with OVCAR-3 ovarian, with SF-268 CNS and in the assay with SK-MEL-2 melanoma was above 100 µM each time. Moreover, the TGI in the assay on U251 CNS was above 100 µM.

For the compound `NC(=O)c1cc2ccccc2o/c1=N/O`, the TGI in the assay with BT-549 breast, in the assay on M14 melanoma, in the assay on NCI-H226 lung, in the assay on NCI-H23 lung, in the assay on OVCAR-3 ovarian and with RPMI-8226 leukemia was above 100 µM in each case. Also, the TGI with SF-268 CNS, with SK-MEL-2 melanoma and in the assay with U251 CNS was above 100 µM each time.

Turning to `O=C(CC1=NCCN1)c1ccccc1`, the TGI with MALME-3M melanoma was above 750 µM; in the assay with NCI-H226 lung it was 742 µM; in the assay on NCI-H23 lung it was above 750 µM; in the assay with OVCAR-3 ovarian it was above 750 µM; in the assay with RPMI-8226 leukemia, above 750 µM; in the assay on SF-268 CNS, above 750 µM. Further, the TGI in the assay with SK-MEL-2 melanoma and with U251 CNS was above 750 µM in each case.

Regarding `COc1c(C)c2nc3ccccc3[nH]c2c2c(=O)ccnc12`, the TGI with M14 melanoma, in the assay on MALME-3M melanoma, in the assay on NCI-H226 lung, in the assay with NCI-H23 lung, with OVCAR-3 ovarian and in the assay on RPMI-8226 leukemia was above 100 µM each time. Moreover, the TGI with SF-268 CNS, in the assay with SK-MEL-2 melanoma and with U251 CNS was above 100 µM throughout.

For the compound `Cc1nc(C)c(Cc2ccccc2)o1`, the TGI in the assay on BT-549 breast, with M14 melanoma, in the assay on MALME-3M melanoma, in the assay with NCI-H226 lung, in the assay with NCI-H23 lung and in the assay on OVCAR-3 ovarian was above 100 µM throughout. The TGI with SF-268 CNS and in the assay with U251 CNS was above 100 µM throughout.

In the case of `NC(N)=Nc1ncccc1[N+](=O)[O-]`, the TGI in the assay with MALME-3M melanoma was above 88 µM; in the assay on NCI-H226 lung it was above 100 µM; in the assay on NCI-H23 lung, above 100 µM; in the assay on OVCAR-3 ovarian it was 66.5 µM; in the assay on RPMI-8226 leukemia it was above 100 µM; in the assay with SF-268 CNS, above 100 µM. Also, the TGI is above 100 µM in the assay with SK-MEL-2 melanoma and above 31.6 µM with U251 CNS.

As to `NC(=O)C(=CNC(=S)c1ccncc1)C(N)=O`, the TGI with BT-549 breast, in the assay on M14 melanoma, in the assay on NCI-H226 lung, in the assay with NCI-H23 lung, with OVCAR-3 ovarian and in the assay with RPMI-8226 leukemia was above 100 µM in each case. The TGI in the assay with SF-268 CNS, in the assay with SK-MEL-2 melanoma and in the assay on U251 CNS was above 100 µM throughout.

Consider `COC1(OC)CCCCC2c3cccc(OC(C)=O)c3C21OC(C)=O` (stereo not given), for which the TGI with M14 melanoma, in the assay on MALME-3M melanoma, in the assay with NCI-H226 lung, with NCI-H23 lung, in the assay on OVCAR-3 ovarian and in the assay with RPMI-8226 leukemia was above 100 µM each time. In addition, the TGI in the assay on SF-268 CNS and with SK-MEL-2 melanoma was above 100 µM throughout.

On to `CCOC(=O)C(CC#Cc1ccc(C#CCC(NC(C)=O)C(=O)OCC)cc1)NC(C)=O` (stereo not given), for which the TGI with M14 melanoma, in the assay on MALME-3M melanoma, in the assay on NCI-H226 lung, with NCI-H23 lung, with OVCAR-3 ovarian and in the assay with RPMI-8226 leukemia was above 100 µM throughout. The TGI in the assay on SF-268 CNS and with SK-MEL-2 melanoma was above 100 µM each time.

On to `O=C(Nc1cccc(O)c1)C(=O)C(C(=O)c1ccccc1F)C1OC(=O)c2ccccc21` (stereo not given), for which the TGI in the assay on M14 melanoma was above 100 µM; with NCI-H226 lung, 49.1 µM; with NCI-H23 lung it was 88.2 µM; in the assay with RPMI-8226 leukemia, 87.8 µM; with SF-268 CNS, 74.7 µM; in the assay with SK-MEL-2 melanoma it was 62.2 µM. In the assay on U251 CNS, this compound returned a TGI of 26.9 µM.

In the case of `O=C(O)C(CO)NC(=O)n1c2ccccc2c2ccccc21` (stereo not given), the TGI in the assay with MALME-3M melanoma, in the assay with NCI-H226 lung, in the assay with NCI-H23 lung, in the assay with OVCAR-3 ovarian, in the assay on RPMI-8226 leukemia and in the assay on SF-268 CNS was above 100 µM throughout. The same compound registered a TGI with SK-MEL-2 melanoma above 100 µM.

Take `CC(=S)N=Cc1c(O)cc(C)oc1=O`: the TGI in the assay on BT-549 breast, with M14 melanoma, in the assay with NCI-H226 lung, in the assay with NCI-H23 lung, in the assay on OVCAR-3 ovarian and in the assay with RPMI-8226 leukemia was above 100 µM throughout. The TGI in the assay with SF-268 CNS, with SK-MEL-2 melanoma and with U251 CNS was above 100 µM throughout.
